The values that follow come from patent US20260242563A1, “DEGRADABLE CROSSLINKING AGENT” (NAGASE CHEMTEX CORPORATION, priority 2023, published 2026).

The nature of one series: Adding a small amount of 12% sodium hypochlorite aqueous solution to the cross-linking agent compound. In kind it is physicochemical. The note with it: small amount of 12% sodium hypochlorite aqueous solution added to the compound.
In the case of `C=C(C)C(=O)NNC(=O)OCCOCCOCCOC(=O)NNC(=O)C(=C)C` [Formula (A1)], the “degradation product generated (confirmed by 1H-NMR)” value (“degradation product generated” for short) is “triethylene glycol” and the “observation upon adding oxidizing agent” value is on record as “foaming occurred”.
As for `C=CCOC(=O)NNC(=O)OCCCCCCOC(=O)NNC(=O)OCC=C` [Formula (A3)], the “degradation product generated” value is listed as 1,6-hexanediol and the “observation upon adding oxidizing agent” value is reported as “foaming occurred”.
Turning to `NNC(=O)CCC(NC(=O)NNC(=O)c1cc(C(=O)NNC(=O)NC(=O)NC(CCC(=O)NN)C(=O)NN)cc(S(=O)(=O)[O-])c1)C(=O)NN.[Na+]` (centres unmarked) [Formula (A6)], the “degradation product generated” value is “sodium 5-sulfoisophthalate” and the “observation upon adding oxidizing agent” value was “foaming occurred”.
Consider `C=CCOC(=O)NNC(=O)CCC(NC(=O)NNC(=O)c1cc(C(=O)NNC(=O)NC(CCC(=O)NNC(=O)OCC=C)C(=O)NNC(=O)OCC=C)cc(S(=O)(=O)[O-])c1)C(=O)NNC(=O)OCC=C.[Na+]` (centres unmarked) [Formula (A7)], for which the “degradation product generated” value was “sodium 5-sulfoisophthalate and glutamic acid”; the “observation upon adding oxidizing agent” value was “foaming occurred”.
Take `C=CCOC(=O)NNC(=O)CCC(NC(=O)NNC(=O)CCC(=O)NNC(=O)NC(CCC(=O)NNC(=O)OCC=C)C(=O)NNC(=O)OCC=C)C(=O)NNC(=O)OCC=C` (centres unmarked) [Formula (A8)]: the “degradation product generated” value is “succinic acid and glutamic acid”; the “observation upon adding oxidizing agent” value is reported as “foaming occurred”.
For the compound `C=C(C)C(=O)NNC(=O)c1ccc(OCC(O)COc2ccc(C(C)(C)c3ccc(OCC(O)COc4ccc(C(=O)NNC(=O)C(=C)C)cc4)cc3)cc2)cc1` (centres unmarked) [Formula (B), reference compound], the “degradation product generated” value is “compound of formula (C)” and the “observation upon adding oxidizing agent” value is reported as “foaming occurred”.

The next series is described as follows: Water solubility of degradation products in ion exchange water at 20° C. The note with it: 0.3 g in 10 mL of ion exchange water.
For `CC(C)(c1ccc(OCC(O)COc2ccc(C(=O)O)cc2)cc1)c1ccc(OCC(O)COc2ccc(C(=O)O)cc2)cc1` (centres unmarked) [Formula (C)], the water solubility result is on record as “insoluble”.
Still for that read-out and setting: the entry for `O=C(O)c1cc(C(=O)O)cc(C(=O)O)c1` [trimesic acid] is “insoluble”.

The series is the same for the next values; noted with them: 0.5 g in 10 mL of ion exchange water.
Take `O=C(O)CCCCCO` [6-hydroxyhexanoic acid]: the water solubility entry is recorded as “soluble”.

The same series, now with this note: 2 g in 10 mL of ion exchange water.
As for `OCCOCCOCCO` [triethylene glycol], the water solubility result is given as “soluble”.

Still in this series, the particulars now being: one gram in 10 mL of ion exchange water.
Take `OCCCCCCO` [1,6-hexanediol]: the water solubility result is reported as “soluble”.
With `O=C(O)c1cc(C(=O)O)cc(S(=O)(=O)O)c1` [5-sulfoisophthalic acid], the water solubility result is recorded as “soluble”.
Still for that read-out and setting: the entry for `NCCCCCCN` [hexamethylenediamine] is “soluble”; for `OCCOCCOCCO` [triethylene glycol] it is “soluble”.
